Measured values reported in publication PMC5830761 (Royal Society Open Science, 2018).

What was measured:
human A1 receptors = target: T1, human A1 receptors (Homo sapiens, UniProt P30542); test: Radioligand binding to human A1 AR ([3H]CCPA), CHO cell membranes; conditions: mean ± SEM; for Ki: CHO cells expressing human A1AR, radioligand [3H]CCPA, read-out: Ki hA1AR
T1 sequence (P30542 1-326): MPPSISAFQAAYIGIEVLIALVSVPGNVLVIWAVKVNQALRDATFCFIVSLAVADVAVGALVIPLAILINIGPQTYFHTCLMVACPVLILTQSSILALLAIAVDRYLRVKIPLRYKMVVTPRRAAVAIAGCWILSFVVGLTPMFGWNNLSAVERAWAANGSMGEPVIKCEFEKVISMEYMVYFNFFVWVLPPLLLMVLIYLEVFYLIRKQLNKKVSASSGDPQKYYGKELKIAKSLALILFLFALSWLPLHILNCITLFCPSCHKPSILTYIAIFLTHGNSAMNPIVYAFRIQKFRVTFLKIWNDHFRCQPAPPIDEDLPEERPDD
Procedure: (§1) CHO (Chinese hamster ovary) cells expressing the recombinant human ARs^2 were cultured in DMEM supplemented with 10% fetal bovine serum, 100 units/mL penicillin, 100 µg/mL streptomycin, 2 µmol/mL glutamine, and 800 µg/mL geneticin. Cells were harvested by trypsinization. After homogenization and suspension, cells were centrifuged at 500 g for 10 min, and the pellet was resuspended in 50 mM Tris-HCl buffer (pH 8.0) containing 10 mM MgCl2, 1 mM EDTA, and 0.1 mg/mL CHAPS. The suspension was homogenized with an electric homogenizer for 10 s and was then recentrifuged at 20000 g for 20 min at 4 °C. […] The protein concentration was measured using the Bradford assay.^3
(§2) Human A1 and A2A receptors: For binding to human A1 receptors, [^3H]CCPA (1 nM) was incubated with membranes (40 µg/tube) from CHO cells stably expressing human A1 receptors at 25 °C for 60 min in 50 mM Tris-HCl buffer (pH 7.4; MgCl2, 10 mM) in a total assay volume of 200 µL. Nonspecific binding was determined using 10 µM of CPA. For human A2A receptor binding, membranes (20 µg/tube) from HEK-293 cells stably expressing human A2A receptors were incubated with 15 nM [^3H]CGS21680 at 25 °C for 60 min in 200 µL of 50 mM Tris-HCl, pH 7.4, containing 10 mM MgCl2. NECA (10 µM) was used to define nonspecific binding. Reaction was terminated by filtration with GF/B filters.

human A2A receptors = target: T2, human A2A receptors (Homo sapiens, UniProt P29274); test: Radioligand binding to human A2A AR ([3H]CGS21680); conditions: cells expressing human A2AAR; radioligand [3H]CGS21680; mean ± SEM; read-out: Ki hA2AAR
T2 construct: expressed in transfected cells
Procedure: as §1, §2

human A3 receptor = target: T3, human A3 receptor (Homo sapiens, UniProt P0DMS8); test: Competitive radioligand binding to human A3 AR ([125I]I-AB-MECA), CHO cell membranes; conditions: CHO cells expressing human A3AR; radioligand [125I]I-AB-MECA; mean ± SEM; read-out: Ki hA3AR
T3 construct: expressed in transfected cells; host or cells: CHO cells, membranes
T3 sequence (P0DMS8 1-318): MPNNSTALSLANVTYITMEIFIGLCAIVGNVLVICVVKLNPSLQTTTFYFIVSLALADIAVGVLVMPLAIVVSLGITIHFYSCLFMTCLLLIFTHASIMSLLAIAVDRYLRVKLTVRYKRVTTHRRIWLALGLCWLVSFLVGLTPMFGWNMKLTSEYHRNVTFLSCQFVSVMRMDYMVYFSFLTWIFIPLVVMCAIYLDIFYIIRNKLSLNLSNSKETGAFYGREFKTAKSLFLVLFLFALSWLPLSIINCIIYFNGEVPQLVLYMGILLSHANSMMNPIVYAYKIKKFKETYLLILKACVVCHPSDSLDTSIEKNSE
Procedure: as §1, with “CHAPS.” for “CHAPS. The suspension was homogenized with an electric homogenizer for 10 s and was then recentrifuged at 20000 g for 20 min at 4 °C.”
Human A3 receptor: For competitive binding assay, each tube contained 100 µL of membrane suspension (20 µg protein), 50 µL of [^125I]I-AB-MECA (0.5 nM), and 50 µL of increasing concentrations of the nucleoside derivative in Tris-HCl buffer (50 mM, pH 7.4) containing 10 mM MgCl2 and 1 mM EDTA. Nonspecific binding was determined using 10 µM of Cl-IB-MECA in the buffer. The mixtures were incubated at 25 °C for 60 min. Binding reactions were terminated by filtration through Whatman GF/B filters under reduced pressure using a MT-24 cell harvester (Brandell, Gaithersburgh, MD). Filters were washed three times with 9 mL of ice-cold buffer. Radioactivity was determined in a Beckman 5500B γ-counter.

T2 sequence (P29274 whole entry): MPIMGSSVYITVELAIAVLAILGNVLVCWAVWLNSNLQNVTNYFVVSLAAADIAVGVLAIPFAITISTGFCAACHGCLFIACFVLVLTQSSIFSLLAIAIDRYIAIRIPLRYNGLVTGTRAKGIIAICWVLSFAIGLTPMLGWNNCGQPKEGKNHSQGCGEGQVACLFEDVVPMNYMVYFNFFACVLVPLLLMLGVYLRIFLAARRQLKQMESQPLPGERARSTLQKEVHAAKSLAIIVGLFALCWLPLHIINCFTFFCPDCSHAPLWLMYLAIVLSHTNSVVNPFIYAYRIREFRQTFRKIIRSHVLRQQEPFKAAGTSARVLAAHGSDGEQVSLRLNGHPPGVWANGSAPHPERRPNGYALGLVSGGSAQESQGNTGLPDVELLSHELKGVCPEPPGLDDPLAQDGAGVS

Compound | inhibition at 10 µM (human A1 receptors; at 10 µM, weak binding, corresponding to IC50 ≥ 10 µM, [3H]CCPA, read-out: % inhibition at 10 µM hA1AR) [%] | Ki (human A2A receptors) [nM] | Ki (human A3 receptor) [nM] | Ki (human A1 receptors) [nM]
Cn1cc(CCOc2nc(N)c3ncn([C@@H]4O[C@H](CO)[C@@H](O)[C@H]4O)c3n2)c2ccc(Br)cc21 [compound 9] | 47 | 2770 ± 500 | 679 ± 149 | 
Nc1nc(OCCc2cn(Cc3ccccc3)c3cc(Br)ccc23)nc2c1ncn2[C@@H]1O[C@H](CO)[C@@H](O)[C@H]1O [compound 10] |  | 380 ± 81 | 532 ± 144 | 217 ± 57
Cn1cc(CCCOc2nc(N)c3ncn([C@@H]4O[C@H](CO)[C@@H](O)[C@H]4O)c3n2)c2ccc(Br)cc21 [compound 13, 2-(6"-Bromo-1"-Methyl-3"-indolylpropoxy)adenosine] |  | 262 ± 192 | 177 ± 43 | 230 ± 26
Nc1nc(OCCCc2cn(Cc3ccccc3)c3cc(Br)ccc23)nc2c1ncn2[C@@H]1O[C@H](CO)[C@@H](O)[C@H]1O [compound 14, 2-(6"-Bromo-1"-Benzyl-3"-indolylpropoxy)adenosine] |  | 371 ± 79 | 491 ± 143 | 152 ± 49
